This passage reports EC50 results from patent publication US20240043404A1 (AbbVie Inc., priority 2009, published 2024).

In one assay the test system is RS4;11 cells. Kind of assay: RS4;11 cell viability assay (CellTiter Glo).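 Note: acute lymphoblastic leukemia line RS4,11, EC50 derived from percentage of viable cells after treatment relative to untreated controls, cell killing taken as a measure of Bcl-2 inhibition.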 Particulars: 50,000 cells per well, 10% human serum, 48 hours; read-out: RS4; 11 EC50 Values. The class given is cell-based, human. (In general: In ATP-based viability assays light output follows the ATP content of the culture.)
Experimental: The acute lymphoblastic leukemia (ALL) cell line RS4;11 was used as the primary human cell line to assess the cellular activity of Bcl-2 selective agents in vitro and their efficacy in vivo.
Cell cytotoxicity EC50 values were assessed using CellTiter Glo (Promega) according to the manufacturer's recommendations. The EC50 values were determined as a percentage of viable cells following treatment compared to the untreated control cells.
Turning to `CC1(C)CCC(CN2CCN(c3ccc(C(=O)NS(=O)(=O)c4ccc(NCC56CC7CC(C5)C(O)C(C7)C6)c([N+](=O)[O-])c4)c(Oc4cnc5[nH]ccc5c4)c3)CC2)=C(c2ccc(Cl)cc2)C1` (stereo not shown) [Example 199, 4-(4-{[2-(4-chlorophenyl)-4,4-dimethylcyclohex-1-en-1-yl]methyl}piperazin-1-yl)-N-{[4-({[(E)-4-hydroxy-1-adamantyl]methyl}amino)-3-nitrophenyl]sulfonyl}-2-(1H-pyrrolo[2,3-b]pyridin-5-yloxy)benzamide], the EC50 was found to be 5.06 nM.

The assay is the same for the next values; noted with them: Homo sapiens, RS4-11, 48 h, 50,000 cells per well, 10% human serum, 48 hours; read-out: RS4; 11 EC50 Values.
In the case of `CC1(C)CCC(CN2CCN(c3ccc(C(=O)NS(=O)(=O)c4ccc(OCC5C[C@H]6C=C[C@@H]5C6)c([N+](=O)[O-])c4)c(Oc4cnc5[nH]ccc5c4)c3)CC2)=C(c2ccc(Cl)cc2)C1` (stereo partly drawn) [Example 201, N-({4-[(1S,4S)-bicyclo[2.2.1]hept-5-en-2-ylmethoxy]-3-nitrophenyl}sulfonyl)-4-(4-{[2-(4-chlorophenyl)-4,4-dimethylcyclohex-1-en-1-yl]methyl}piperazin-1-yl)-2-(1H-pyrrolo[2,3-b]pyridin-5-yloxy)benzamide], the EC50 turned out to be 591 nM. The same measure, in the same setting: the figure for `CN(C)CC(=O)N1CCO[C@H](COc2ncc(S(=O)(=O)NC(=O)c3ccc(N4CCN(CC5=C(c6ccc(Cl)cc6)CC(C)(C)CC5)CC4)cc3Oc3cnc4[nH]ccc4c3)cc2Cl)C1` [Example 245, N-[(5-chloro-6-{[(2S)-4-(N,N-dimethylglycyl)morpholin-2-yl]methoxy}pyridin-3-yl)sulfonyl]-4-(4-{[2-(4-chlorophenyl)-4,4-dimethylcyclohex-1-en-1-yl]methyl}piperazin-1-yl)-2-(1H-pyrrolo[2,3-b]pyridin-5-yloxy)benzamide] is 83.6 nM. On the same count and under the same terms, the figure for `CC1(C)CCC(CN2CCN(c3ccc(C(=O)NS(=O)(=O)c4ccc(NCC5CNCCO5)c([N+](=O)[O-])c4)c(Oc4cnc5[nH]ccc5c4)c3)CC2)=C(c2ccc(Cl)cc2)C1` (stereo not shown) [Example 113, 4-(4-{[2-(4-chlorophenyl)-4,4-dimethylcyclohex-1-en-1-yl]methyl}piperazin-1-yl)-N-({4-[(morpholin-2-ylmethyl)amino]-3-nitrophenyl}sulfonyl)-2-(1H-pyrrolo[2,3-b]pyridin-5-yloxy)benzamide] is 1.36 nM; for `CC1(C)CCC(CN2CCN(c3ccc(C(=O)NS(=O)(=O)c4ccc(NC[C@@H]5CC[C@@H](O)C5)c([N+](=O)[O-])c4)c(Oc4cnc5[nH]ccc5c4)c3)CC2)=C(c2ccc(Cl)cc2)C1` [Example 156, 4-(4-{[2-(4-chlorophenyl)-4,4-dimethylcyclohex-1-en-1-yl]methyl}piperazin-1-yl)-N-{[4-({[(1R,3R)-3-hydroxycyclopentyl]methyl}amino)-3-nitrophenyl]sulfonyl}-2-(1H-pyrrolo[2,3-b]pyridin-5-yloxy)benzamide] it is 8.05 nM. For the compound `CC1(C)CCC(CN2CCN(c3ccc(C(=O)NS(=O)(=O)c4ccc(OCC5(F)CCOCC5)nc4)c(Oc4cnc5[nH]ccc5c4)c3)CC2)=C(c2ccc(Cl)cc2)C1` [Example 251, 4-(4-{[2-(4-chlorophenyl)-4,4-dimethylcyclohex-1-en-1-yl]methyl}piperazin-1-yl)-N-({6-[(4-fluorotetrahydro-2H-pyran-4-yl)methoxy]pyridin-3-yl}sulfonyl)-2-(1H-pyrrolo[2,3-b]pyridin-5-yloxy)benzamide], the EC50 was 918 nM. The same measure, in the same setting: the figure for `CC1(C)CCC(CN2CCN(c3ccc(C(=O)NS(=O)(=O)c4ccc(Cl)c([N+](=O)[O-])c4)c(Oc4cnc5[nH]ccc5c4)c3)CC2)=C(c2ccc(Cl)cc2)C1` [Example 82, N-[(4-chloro-3-nitrophenyl)sulfonyl]-4-(4-{[2-(4-chlorophenyl)-4,4-dimethylcyclohex-1-en-1-yl]methyl}piperazin-1-yl)-2-(1H-pyrrolo[2,3-b]pyridin-5-yloxy)benzamide] is 684 nM. The same measure, in the same setting: the figure for `CC1(C)CCC(CN2CCN(c3ccc(C(=O)NS(=O)(=O)c4ccc(OCC5(C)CCOCC5)c([N+](=O)[O-])c4)c(Oc4cnc5[nH]ccc5c4)c3)CC2)=C(c2ccc(Cl)cc2)C1` [Example 221, 4-(4-{[2-(4-chlorophenyl)-4,4-dimethylcyclohex-1-en-1-yl]methyl}piperazin-1-yl)-N-({4-[(4-methyltetrahydro-2H-pyran-4-yl)methoxy]-3-nitrophenyl}sulfonyl)-2-(1H-pyrrolo[2,3-b]pyridin-5-yloxy)benzamide] is 94.8 nM. For the compound `CC1(C)CCC(CN2CCN(c3ccc(C(=O)NS(=O)(=O)c4ccc(N[C@H]5CCCNC5=O)c([N+](=O)[O-])c4)c(Oc4cnc5[nH]ccc5c4)c3)CC2)=C(c2ccc(Cl)cc2)C1` [Example 160, 4-(4-{[2-(4-chlorophenyl)-4,4-dimethylcyclohex-1-en-1-yl]methyl}piperazin-1-yl)-N-[(3-nitro-4-{[(3S)-2-oxopiperidin-3-yl]amino}phenyl)sulfonyl]-2-(1H-pyrrolo[2,3-b]pyridin-5-yloxy)benzamide], the EC50 amounted to 83.6 nM. Same read-out and setting: for `CC1(C)CCC(CN2CCN(c3ccc(C(=O)NS(=O)(=O)c4ccc(N[C@H]5CC[C@@H](N6CCOCC6)CC5)c([N+](=O)[O-])c4)c(Oc4cnc5[nH]ccc5c4)c3)CC2)=C(c2ccc(Cl)cc2)C1` [Example 39, Cis-4-(4-{[2-(4-chlorophenyl)-4,4-dimethylcyclohex-1-en-1-yl]methyl}piperazin-1-yl)-N-({4-[(4-morpholin-4-ylcyclohexyl)amino]-3-nitrophenyl}sulfonyl)-2-(1H-pyrrolo[2,3-b]pyridin-5-yloxy)benzamide] the value was 19.7 nM; for `CC(C)N1CCC2(CCC(c3ccc(Cl)cc3)=C(CN3CCN(c4ccc(C(=O)NS(=O)(=O)c5ccc(NCC6CCOCC6)c(C(F)(F)F)c5)c(Oc5cnc6[nH]ccc6c5)c4)CC3)C2)CC1` [Example 273, 4-(4-{[9-(4-chlorophenyl)-3-isopropyl-3-azaspiro[5.5]undec-8-en-8-yl]methyl}piperazin-1-yl)-2-(1H-pyrrolo[2,3-b]pyridin-5-yloxy)-N-({4-[(tetrahydro-2H-pyran-4-ylmethyl)amino]-3-(trifluoromethyl)phenyl}sulfonyl)benzamide], 209 nM. Same read-out and setting: for `CC1(C)CCC(CN2CCN(c3ccc(C(=O)NS(=O)(=O)c4cnc(N[C@@H]5CCN(C(CF)CF)C5)c(Cl)c4)c(Oc4cnc5[nH]ccc5c4)c3)CC2)=C(c2ccc(Cl)cc2)C1` [Example 231, N-[(5-chloro-6-{[(3R)-1-(1,3-difluoropropan-2-yl)pyrrolidin-3-yl]amino}pyridin-3-yl)sulfonyl]-4-(4-{[2-(4-chlorophenyl)-4,4-dimethylcyclohex-1-en-1-yl]methyl}piperazin-1-yl)-2-(1H-pyrrolo[2,3-b]pyridin-5-yloxy)benzamide] the value was 523 nM. On the same count and under the same terms, for `CC1(C)CCC(CN2CCN(c3ccc(C(=O)NS(=O)(=O)c4ccc(NC5CN(C6COC6)C5)c([N+](=O)[O-])c4)c(Oc4cnc5[nH]ccc5c4)c3)CC2)=C(c2ccc(Cl)cc2)C1` [Example 256, 4-(4-{[2-(4-chlorophenyl)-4,4-dimethylcyclohex-1-en-1-yl]methyl}piperazin-1-yl)-N-[(3-nitro-4-{[1-(oxetan-3-yl)azetidin-3-yl]amino}phenyl)sulfonyl]-2-(1H-pyrrolo[2,3-b]pyridin-5-yloxy)benzamide] the value was 18 nM.
